Assay [1] has as its target T1, SSTR4 (Homo sapiens (Human), UniProt P31391). As to the kind of experiment: SSTR4 I-125 somatostatin competition binding assay. Conditions: for IC50: membranes from CHO-K1 cells overexpressing SSTR4, read-out: SSTR4 Binding pIC50 (converted); for SSTR4 Binding pIC50: membranes from CHO-K1 cells overexpressing SSTR4. The text has this:
The scintillator sheets are melted to filters using a heat block.

Assay [2] deals with T2, SSTR1 (Homo sapiens (Human), UniProt P30872). As to the kind of experiment: biochemical.
Experimental: (§1) Membranes from CHO-K1 cells overexpressing SSTR1 are purchased from Perkin Elmer (catalog number ES-520-M400UA). […] Then 10 μg of SSTR1 membranes in 50 μL assay buffer are added per well. The plate is incubated for 60 minutes at room temperature. […] The contents of the assay plate are transferred to filters with a TomTech harvester and washed 5 times with 20 mM HEPES, 100 mM NaCl. […] The scintillator sheets are melted to the filters using a heat block. The filters are then read in a MicroBeta scintillation counter. Binding Ki curves are generated using Activity Base for Screening Data Management and the results are reported as pIC50.
The target in assay [3] is T1, SSTR4. As to the kind of experiment: Inhibition of forskolin stimulated cAMP in cells overexpressing SSTR4. Type of assay: cell-based. Conditions: inhibition of forskolin stimulated cAMP in CHO-K1 cells overexpressing SSTR4; read-out: SSTR4 Activity pEC50 (converted). The protocol:
Inhibition of Forskolin Stimulated cAMP in Cells Overexpressing SSTR4
This cell-based assay measures the ability of compounds to inhibit forskolin stimulated cAMP in CHO-K1 cells overexpressing SSTR4. CHO-K1 cells overexpressing SSTR4 (CHO-SSTR4) are purchased from DiscoveRx (product code 95-0059C2). The CHO-SSTR4 cells are maintained in F12K media with 10% Fetal Bovine Serum (Hyclone), 1% Pen/Strep (Life Technologies), and 800 μg/mL G418 (Life Technologies). […] The next day, the culture media is removed from the cells and the cells are washed (added then removed) with Krebs Ringer Buffer (ZenBio, KRB-1000 mL). […] The cells are incubated in 10 μL compound/stimulation buffer for 30 minutes at room temperature. Cellular cAMP levels are detected with a HTRF LANCE Ultra cAMP kit (Perkin Elmer, catalog number TRF0264).
The assay is performed in accordance with the manufacturer's instructions. […] of diluted Eu—W8044 labeled streptavidin (dilution: 1:50 in cAMP Detection Buffer) is added to each well. Then 5 μL of diluted biotin cAMP (dilution: 1:150 in cAMP Detection Buffer) is added to each well. The plates are covered and allowed to incubate for 60 minutes at room temperature on a shaker. […] The pEC50 values are generated using Activity Base for Screening Data Management.

Assay [4] addresses T2, SSTR1.
Experimental: as §1

Where two headings read alike, the source gives them in different places.

T1 sequence (P31391 whole entry): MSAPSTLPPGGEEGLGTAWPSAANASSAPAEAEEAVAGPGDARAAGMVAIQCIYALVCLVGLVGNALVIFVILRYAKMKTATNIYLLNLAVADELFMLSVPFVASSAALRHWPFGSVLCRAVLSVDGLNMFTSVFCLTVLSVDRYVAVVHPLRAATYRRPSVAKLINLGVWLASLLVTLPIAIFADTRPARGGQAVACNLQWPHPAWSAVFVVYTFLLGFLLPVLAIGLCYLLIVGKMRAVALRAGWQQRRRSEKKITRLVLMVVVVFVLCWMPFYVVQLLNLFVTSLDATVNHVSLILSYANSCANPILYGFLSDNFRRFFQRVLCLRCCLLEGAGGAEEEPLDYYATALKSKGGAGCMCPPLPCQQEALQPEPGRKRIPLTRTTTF
T2 sequence (P30872 whole entry): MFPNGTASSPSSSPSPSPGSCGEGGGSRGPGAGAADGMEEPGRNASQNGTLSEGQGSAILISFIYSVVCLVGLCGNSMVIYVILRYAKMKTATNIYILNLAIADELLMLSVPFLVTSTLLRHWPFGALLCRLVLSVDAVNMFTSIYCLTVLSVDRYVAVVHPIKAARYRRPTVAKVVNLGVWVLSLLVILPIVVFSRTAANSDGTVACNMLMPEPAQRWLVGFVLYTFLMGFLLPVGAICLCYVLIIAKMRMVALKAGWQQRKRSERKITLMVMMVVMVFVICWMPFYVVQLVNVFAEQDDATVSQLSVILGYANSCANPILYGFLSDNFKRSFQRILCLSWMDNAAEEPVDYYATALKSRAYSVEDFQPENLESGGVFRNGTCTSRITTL

In the case of `Cc1cccc(CC2(C(=O)N[C@@H]3CN(C)C[C@H]3C(C)C)CC2)c1` (racemic) [Example 3, N-(trans-4-isopropyl-1-methylpyrrolidin-3-yl)-1-(3-methylbenzyl)cyclopropane-1-carboxamide], the IC50 in assay [1] was 91.2 nM; in assay [2] it was 5370 nM. Besides, the EC50 in assay [3] was 12.6 nM.

Consider `C[C@@H]1CN(C)CC[C@H]1NC(=O)C1(Cc2ccc(F)cc2)CC1` (racemic) [Example 10, N-(trans-1,3-dimethylpiperidin-4-yl)-1-(4-fluorobenzyl)cyclopropane-1-carboxamide], for which the IC50 in assay [1] was 513 nM; in assay [2], 15500 nM. Also, the EC50 in assay [3] is 70.8 nM.

As to `Cc1ccccc1CC1(C(=O)N[C@@H]2CCN(C)C[C@H]2C)CC1` (racemic) [Example 12, N-(trans-1,3-dimethylpiperidin-4-yl)-1-(2-methylbenzyl)cyclopropane-1-carboxamide], the IC50 is 891 nM in assay [1] and 15800 nM in assay [2]. Also, the EC50 in assay [3] is 57.5 nM.

As to `N#Cc1ccccc1OC(F)(F)C(=O)NC1CCNCC1` [Example 32, 2-(2-cyanophenoxy)-2,2-difluoro-N-(piperidin-4-yl)acetamide], the “SSTR4 Binding pIC50” value in assay [1] is 5.49. The compound further had an IC50 in assay [4] of over 50100 nM. Besides, the EC50 in assay [3] is 50.1 nM.

On to `C[C@H]1CNCC[C@@H]1NC(=O)C(F)(F)Oc1ccccc1C#N` [Example 33, 2-(2-cyanophenoxy)-2,2-difluoro-N-((3S,4S)-3-methylpiperidin-4-yl)acetamide], for which the “SSTR4 Binding pIC50” value in assay [1] was determined as 6.79. For the same compound, the IC50 in assay [4] is over 50100 nM. Further, in assay [3], the EC50 is 16.6 nM.

On to `Cc1ccc(OC(F)(F)C(=O)NC2CCNCC2)cc1` [Example 34, 2,2-difluoro-N-(piperidin-4-yl)-2-(p-tolyloxy)acetamide], for which, in assay [1], the “SSTR4 Binding pIC50” value is given as 6.17. Besides, the IC50 in assay [4] was over 50100 nM. Further, in assay [3], the EC50 is 47.9 nM.

Consider `C[C@H]1CN(C)CC[C@@H]1NC(=O)C1(Cc2ccc(F)cc2)CC1` [Example 35, N-((3S,4S)-1,3-dimethylpiperidin-4-yl)-1-(4-fluorobenzyl)cyclopropane-1-carboxamide], for which the “SSTR4 Binding pIC50” value in assay [1] is given as 6.66. In addition, the IC50 in assay [4] was 5890 nM. Moreover, in assay [3], the EC50 was 26.3 nM.

As for `C[C@H]1CN(C)CC[C@@H]1NC(=O)C1(Cc2cccc(Cl)c2)CC1` [Example 36, 1-(3-chlorobenzyl)-N-((3S,4S)-1,3-dimethylpiperidin-4-yl)cyclopropane-1-carboxamide], in assay [1], the “SSTR4 Binding pIC50” value is 6.56. The compound further gave an IC50 in assay [4] of 4680 nM. Besides, the EC50 in assay [3] was 23.4 nM.

On to `C[C@@H]1C[C@H](NC(=O)C2(CN(C)c3cccc(Cl)n3)CC2)CCN1C` [Example 41, 1-(((6-chloropyridin-2-yl)(methyl)amino)methyl)-N-((2R,4R)-1,2-dimethylpiperidin-4-yl)cyclopropane-1-carboxamide], for which, in assay [1], the “SSTR4 Binding pIC50” value amounted to 6.53. Further, the IC50 in assay [4] is over 50100 nM. For the same compound, the EC50 in assay [3] is 56.2 nM.

In the case of `O=C(N[C@H]1CCNC[C@@H]1F)C1(Cc2ccccc2F)CC1` [Example 43, 1-(2-fluorobenzyl)-N-((3S,4S)-3-fluoropiperidin-4-yl)cyclopropane-1-carboxamide], in assay [1], the “SSTR4 Binding pIC50” value is 6.87. In assay [4], the IC50 was over 50100 nM. Further, the EC50 in assay [3] is 63.1 nM.

As for `COc1cccc(CC2(C(=O)N[C@H]3CCNC[C@@H]3F)CC2)c1` [Example 46, N-((3S,4S)-3-fluoropiperidin-4-yl)-1-(3-methoxybenzyl)cyclopropane-1-carboxamide], the “SSTR4 Binding pIC50” value in assay [1] stood at 7.29. In assay [4], this compound yielded an IC50 of over 50100 nM. Also, in assay [3], the EC50 is 11.7 nM.

For `C[C@H]1C[C@@H](NC(=O)C(F)(F)Oc2ccccc2)CCN1` [Example 48, 2,2-difluoro-N-((2S,4S)-2-methylpiperidin-4-yl)-2-phenoxyacetamide], in assay [1], the “SSTR4 Binding pIC50” value is given as 5.43. This compound displayed an IC50 in assay [4] of over 50100 nM. Further, the EC50 in assay [3] is 91.2 nM.

`C[C@@H]1C[C@H](NC(=O)C(F)(F)Oc2ccccc2)CCN1` [Example 51, 2,2-difluoro-N-((2R,4R)-2-methylpiperidin-4-yl)-2-phenoxyacetamide]: in assay [1], the “SSTR4 Binding pIC50” value amounted to 5.53. This compound also came in with an IC50 in assay [4] of over 50100 nM. In addition, in assay [3], the EC50 was 35.5 nM.

As for `C[C@H]1C[C@H](NC(=O)C(F)(F)Oc2ccccc2)CCN1` [Example 53, 2,2-difluoro-N-((2S,4R)-2-methylpiperidin-4-yl)-2-phenoxyacetamide], the “SSTR4 Binding pIC50” value in assay [1] came out at 5.43. The IC50 in assay [4] was over 50100 nM. The EC50 in assay [3] was 55 nM.

With `C[C@H]1CNCC[C@@H]1NC(=O)C(F)(F)Oc1ccccc1F` [Example 54, 2,2-difluoro-2-(2-fluorophenoxy)-N-((3S,4S)-3-methylpiperidin-4-yl)acetamide], the “SSTR4 Binding pIC50” value in assay [1] worked out at 6.55. The compound further showed an IC50 in assay [4] of over 50100 nM. The EC50 in assay [3] was 21.4 nM.

`C[C@H]1CNCC[C@@H]1NC(=O)C(F)(F)Oc1cccc(F)c1` [Example 55, 2,2-difluoro-2-(3-fluorophenoxy)-N-((3S,4S)-3-methylpiperidin-4-yl)acetamide]: in assay [1], the “SSTR4 Binding pIC50” value came to 7.13. The compound further came in with an IC50 in assay [4] of over 50100 nM. Further, the EC50 in assay [3] was 5.25 nM.

On to `Cc1ccccc1OC(F)(F)C(=O)N[C@H]1CCNC[C@@H]1C` [Example 56, 2,2-difluoro-N-((3S,4S)-3-methylpiperidin-4-yl)-2-(o-tolyloxy)acetamide], for which the “SSTR4 Binding pIC50” value in assay [1] is 7.14. Also, in assay [4], the IC50 was 44700 nM. The EC50 in assay [3] is 1.7 nM.

In the case of `C[C@H]1CNCC[C@@H]1NC(=O)C(F)(F)Oc1ccc(F)cc1` [Example 58, 2,2-difluoro-2-(4-fluorophenoxy)-N-((3S,4S)-3-methylpiperidin-4-yl)acetamide], in assay [1], the “SSTR4 Binding pIC50” value worked out at 6.77. The IC50 in assay [4] is 46800 nM. Besides, the EC50 in assay [3] is 5.01 nM.

For `C[C@H]1CNCC[C@@H]1NC(=O)C(F)(F)Oc1ccccc1Cl` [Example 64, 2-(2-chlorophenoxy)-2,2-difluoro-N-((3S,4S)-3-methylpiperidin-4-yl)acetamide], the “SSTR4 Binding pIC50” value in assay [1] worked out at 7.25. Besides, in assay [4], the IC50 was 19100 nM. In addition, in assay [3], the EC50 was 1.32 nM.

As to `O=C(NC1CCNCC1)C(F)(F)Oc1ccccc1Cl` [Example 70, 2-(2-chlorophenoxy)-2,2-difluoro-N-(piperidin-4-yl)acetamide], the “SSTR4 Binding pIC50” value in assay [1] came to 6.48. The compound also had an IC50 in assay [4] of over 50100 nM. Also, the EC50 in assay [3] is 18.2 nM.

For the origin of these results see patent US20250188037A1, “N-(PYRROLIDIN-3-YL OR PIPERIDIN-4-YL)ACETAMIDE DERIVATIVES” (Takeda Pharmaceutical Company Limited, priority 2022, published 2025).
